“Also recorded” adds a separate entry of the source.
System: soybean cot-node explants
Assay: GUS transient expression on soybean cot-node explants after 5-day co-cultivation with Agrobacterium (T-DNA delivery)
Format: cell-based, Glycine max
Excerpt: For each seedling, the roots and the majority of the hypocotyl were removed approximately 3-5 mm below the cotyledonary node by cutting the hypocotyl with a scalpel (Hinchee et al., 1998). The two cotyledons were then separated by cutting vertically through the hypocotyl region resulting in two explants. The epicotyl was subsequently removed on both explants, including all primary leaves and shoot meristems, and both the axillary bud and cotyledonary node were wounded by cutting about 10 times with a scalpel blade perpendicular to the hypocotyl. After all explants in a set were wounded (about 50), they were placed in a 25×100 mm petri plate containing 50 ml co-culture suspension for 30 minutes or inoculated into the 25 ml co-cultivation/Agrobacterium suspension for 30 minutes. The explants were then cultured on an agar-solidified co-culture media (0.5%) either without the addition of a test agent (e.g., cysteine) in 15×100 mm petri plates on top a sterile Whatman®#1 filter paper; five explants per plate with adaxial side down. Five plates were stacked together and wrapped in Parafilm®M then incubated at either 22° C. or 25° C. for 5 days in the dark.
After 5 days, the explants were washed in a liquid shoot induction media (B5 salts, MSIII iron stock, 3% sucrose, 3 mM MES, and filter sterilized B5 vitamins, 1.67 mg/l BAP, 100 mg/l cefotaxime, and 500 mg/l ticarcillin; pH 5.6) to remove excess Agrobacterium. Seven to ten explants from each cysteine level were washed in liquid shoot induction medium and placed in GUS histochemical stain (Jefferson et al., 1987). These explants were scored for GUS transient expression. Five to ten explants from each group were imbedded into a single 25×100 mm petri plate with solid shoot induction media (0.8% agar and agent, e.g., 400 mg/l cysteine) containing PPT concentrations of 1.33 mg/l, 3.33 mg/l, or 5.0 mg/l for selection. The plates were then incubated in a growth chamber with a fluctuating temperature between 18° C.-30° C. under a 18 hours light/6 hours dark cycle at 90-150 μE/m^2s.
The level of infection was scored using the GUS gene as a phenotypic marker immediately after co-culture and again after 4 weeks in shoot induction media. As it can be difficult to score the explants after co-cultivation due to the variation among explants and, in some cases, a complete staining of the target tissues, 6 categories were formed to assess the success of infection: • 4) None=There were no GUS positive sectors on any of the explants; • 5) Very low=Not all explants have GUS positive sectors, however, some have discrete foci usually seen on the hypocotyl or cot-node region. • 6) Low=More than ¾ the explants have GUS positive sectors in discrete foci on the hypocotyl and the cot-node region, but the foci are not numerous (<20). • 7) Medium=More than ½ the explants have significant GUS positive sectors at the cot-node region and hypocotyl, some seen as long lines of cells or larger sectors. • 8) Good=More than ¾ the explants have significant staining at the hypocotyl, the entire cot-node region, and on the cotyledons. […] Almost all explants have regions that are completely GUS positive. To reduce bias, samples were chosen at random and the level of infection scored before noting the treatment conditions. Samples that were between two categories are marked accordingly; those samples that resembled one category more than another were marked with a capital “X” and the other with a lowercase “x”.
Wounded soybean cot-node explants prepared from the cultivar ‘Bert’ were co-cultivated with Agrobacterium on solid co-cultivation medium containing various levels of cysteine for 5 days.

N[C@@H](CS)C(=O)O [L-cysteine]
infection, cysteine in solid co-culture media (experiments #4-#6) (0 or 400 mg/l cysteine in liquid and solid co-culture media): increased infection
average frequency of explants containing a GUS+ focus at the cot-node (300 to 1000 mg/l cysteine in solid co-cultivation medium, Bert, AGL1 pBSF16, 5 days, 30% with no cysteine): ~100%
GUS staining scores, difference from 0 mg/l cysteine (400 and 1000 mg/l cysteine, α=0.05 (P<0.001)): significantly differ
frequency of explants with at least one GUS+ focus, difference from 0 mg/l cysteine (400 and 1000 mg/l cysteine, α=0.05 (P<0.001), FIG. 1D): significantly differ
frequency of explants with GUS+ foci at the cot-node, all genotypes (5 days co-cultivation, MN0901, A3237, MN1801, MN0301, Granite, MN1401, MN1301, Lambert): increase
GUS+ staining after co-cultivation (Bert, LBA4404 pTOK233, agent in solid co-cultivation media, concentrations of Table 1, 5-day incubation): increases
infection (% of explants) at the entire cot-node region (after 5-day incubation, cysteine containing solid co-culture media (100-400 mg/l L-cysteine), genotypes Bert, MN1301, MN0901, 50% of control explants): 80-100%
GUS+ foci at the 5-day interval (amended to solid co-cultivation media): increase
number of GUS+ foci per explant five days post-inoculation (cysteine 400-1000 mg/l, eight independent experiments): increase
frequency of GUS positive sectors/foci with strain LBA4404 pTOK233 (cysteine during co-cultivation vs control, 5 days): exceed in the frequency of GUS positive sectors over the control explants; also recorded: greater
GUS positive sectors after co-cultivation (experiments #1-#3) (cysteine, especially 300 and 400 mg/l, MN1301, MN0901, Bert): extensive GUS positive sectors
frequency of explants with at least one GUS+ focus at the cot-node (five days post-inoculation, cysteine 400-1000 mg/l, eight independent experiments, 30% without): 100%
